Data reported in patent publication US5032680A (priority 1988, dated 1991).

How the values were obtained:
[1] = tested on: Mouse transplantable tumour Sarcoma 180 cells; assay: Measurement of antitumour activity value (Sarcoma 180 subcutaneously transplanted, oral administration); type: in vivo, male ICR/JCL mice; settings: once a day for 9 consecutive days, tumour weight on day 12, Sarcoma 180, ICR/JCL mice; for ED50 (dose at which tumour proliferation-inhibitory rate is over 50%): 17280 min
Experimental: Mouse transplantable tumour Sarcoma 180 cells (5×10^6 cells) were transplanted subcutaneously into male ICR/JCL mice (weighing 27-30 g) in the back. The test compounds were dissolved or suspended in a 0.5 weight % aqueous solution of CMC containing Tween 80 at the concentration of 0.1 weight % to afford test preparations. Using 7 animals per group, the test preparations were orally administered to each mouse at the dose of 0.1 ml/10 g mouse body weight once a day for consecutive 9 days from the following day of the day when the tumours were transplanted.
On the twelfth day from the day of tumour-transplantation, the average weight of tumours for each of the test compounds at the respective doses was measured. The weight was compared with the average weight of the tumours of the control group, and the tumour proliferation-inhibitory rates of the test compounds based on that of the control group were estimated at the respective dose.

[2] = in vivo; cited from earlier work
[3] = in vivo; cited from earlier work; remark: listed apart in the source
tumour = settings: cited from earlier work

SMILES	ED50 (dose at which tumour proliferation-inhibitory rate is over 50%) [1]	further results
Cc1cc(OP(=O)(OC[C@H]2O[C@@H](n3cc(F)c(=O)[nH]c3=O)C[C@@H]2O)Oc2ccccc2)ccc1Cl (stereo partly drawn) [Ex. 6, 4-chloro-3-methylphenyl phenyl 2'-deoxy-5-fluoro-5'-uridylate]	6.2 mg/kg	
O=c1[nH]c(=O)n([C@H]2C[C@H](O)[C@@H](COP(=O)(Oc3ccc(C(F)(F)F)cc3)Oc3ccc(C(F)(F)F)cc3)O2)cc1F [Ex. 19, Di-p-trifluoromethylphenyl 2'-deoxy-5-fluoro-5'-uridylate]	0.9 mg/kg	
O=c1[nH]c(=O)n([C@H]2C[C@H](O)[C@@H](COP(=O)(Oc3cccc(Cl)c3)Oc3cccc(Cl)c3)O2)cc1F [Ex. 9, Di-m-chlorophenyl 2'-deoxy-5-fluoro-5'-uridylate]	1.4 mg/kg	
O=c1[nH]c(=O)n([C@H]2C[C@H](O)[C@@H](COP(=O)(Oc3ccc4c(c3)OCO4)Oc3ccc4c(c3)OCO4)O2)cc1F [Ex. 13, Di(3,4-methylenedioxyphenyl) 2'-deoxy-5-fluoro-5'-uridylate]	25.0 mg/kg	
O=c1[nH]c(=O)n([C@H]2C[C@H](O)[C@@H](COP(=O)(Oc3ccc([N+](=O)[O-])cc3)Oc3ccc([N+](=O)[O-])cc3)O2)cc1F [Ex. 24, di-p-nitrophenyl 2'-deoxy-5-fluoro-5'-uridylate]	5.4 mg/kg	
O=c1[nH]c(=O)n([C@H]2C[C@H](O)[C@@H](COP(=O)(Oc3ccc(Cl)cc3)Oc3ccc(Cl)cc3)O2)cc1F [Ex. 7, di-p-chlorophenyl 2'-deoxy-5-fluoro-5'-uridylate]	1.4 mg/kg	
CC(C)=CCCC(C)CCOP(=O)(OC[C@H]1O[C@@H](n2cc(F)c(=O)[nH]c2=O)C[C@@H]1O)Oc1ccccc1 (stereo partly drawn) [Ex. 5, citroneryl phenyl 2'-deoxy-5-fluoro-5'-uridylate]	23.8 mg/kg	
O=c1[nH]c(=O)n([C@H]2C[C@H](O)[C@@H](COP(=O)(Oc3ccccc3)Oc3ccccc3)O2)cc1F [Ex. 1, diphenyl 2'-deoxy-5-fluoro-5'-uridylate]	11.1 mg/kg	
O=c1[nH]c(=O)n([C@H]2C[C@H](O)[C@@H](COP(=O)(Sc3ccc(Cl)cc3)Sc3ccc(Cl)cc3)O2)cc1F [Ex. 26, 2'-deoxy-5-fluorouridine 5'-(S,S-di-p-chlorophenylphosphorodithioate)]	4.2 mg/kg	
O=C(c1ccccc1)n1c(=O)c(F)cn([C@H]2C[C@H](O)[C@@H](COP(=O)(Oc3ccccc3)Oc3ccccc3)O2)c1=O [Ex. 3, diphenyl 3-benzoyl-2'-deoxy-5-fluoro-5'-uridylate]	7.0 mg/kg	
O=c1[nH]c(=O)n([C@H]2C[C@H](O)[C@@H](CO)O2)cc1F [FdUrd, 2'-deoxy-5-fluorouridine]		toxicity of FdUrd (in words) [2]: the toxicity thereof is strong; ED50 ([1]; Mus musculus, 288 h, read-out: ED50 (dose at which tumour proliferation-inhibitory rate is over 50%)): 59.5 mg/kg; decomposition into 5-fluorouracil (in words) [3]: a large portion thereof is decomposed into 5-fluorouracil; metabolism and excretion (in words) [3]: rapidly metabolized and excreted; tumour proliferation-inhibitory action (in words) (tumour; cytostatic potency test (in vivo)): extremely potent tumour proliferation-inhibitory action; effect as compared with 5-fluorouracil (in words) (tumour; in vivo): can not be found to exhibit any particular superior effects as compared with 5-fluorouracil
N#Cc1ccc(OP(=O)(OC[C@H]2O[C@@H](n3cc(F)c(=O)[nH]c3=O)C[C@@H]2O)Oc2ccc(C#N)cc2)cc1 [Ex. 16, Di-p-cyanophenyl 2'-deoxy-5-fluoro-5'-uridylate]	6.1 mg/kg	
O=c1[nH]c(=O)n([C@H]2C[C@H](O)[C@@H](COP(=O)(Oc3ccc(F)cc3)Oc3ccc(F)cc3)O2)cc1F [Ex. 17, Di-p-fluorophenyl 2'-deoxy-5-fluoro-5'-uridylate]	1.3 mg/kg	
O=c1[nH]c(=O)n([C@H]2C[C@H](O)[C@@H](COP(=O)(Oc3ccccc3Cl)Oc3ccccc3Cl)O2)cc1F [Ex. 8, Di-o-chlorophenyl 2'-deoxy-5-fluoro-5'-uridylate]	10.0 mg/kg	
CC(=O)O[C@H]1C[C@H](n2cc(F)c(=O)[nH]c2=O)O[C@@H]1COP(=O)(Oc1ccc(Cl)cc1)Oc1ccc(Cl)cc1 [Ex. 22, di-p-chlorophenyl 3'-acetyl-2'-deoxy-5-fluoro-5'-uridylate]	1.2 mg/kg	
O=c1[nH]c(=O)n([C@H]2C[C@H](O)[C@@H](COP(=O)(Oc3ccc(Cl)cc3Cl)Oc3ccc(Cl)cc3Cl)O2)cc1F [Ex. 11, Di(2,4-dichlorophenyl) 2'-deoxy-5-fluoro-5-uridylate]	1.5 mg/kg	
O=c1[nH]c(=O)n([C@H]2C[C@H](O)[C@@H](COP(=O)(Oc3ccc(Cl)c(Cl)c3)Oc3ccc(Cl)c(Cl)c3)O2)cc1F [Ex. 12, Di(3,4-dichlorophenyl) 2'-deoxy-5-fluoro-5'-uridylate]	2.5 mg/kg	
O=c1[nH]c(=O)n([C@H]2C[C@H](O)[C@@H](COP(=O)(Oc3cccc(Cl)c3Cl)Oc3cccc(Cl)c3Cl)O2)cc1F [Ex. 10, Di(2,3-dichlorophenyl) 2'-deoxy-5-fluoro-5'-uridylate]	3.6 mg/kg	
O=c1[nH]c(=O)n([C@H]2C[C@H](O)[C@@H](COP(=O)(Oc3ccc(Br)cc3)Oc3ccc(Br)cc3)O2)cc1F [Ex. 18, Di-p-bromophenyl 2'-deoxy-5-fluoro-5'-uridylate]	1.2 mg/kg	
